What was measured:
[1] = molecular target: T1, Cholesteryl ester transfer protein (Homo sapiens, UniProt P11597); test: Tested for inhibition of [3H]cholesteryl linoleate(CE) transfer from donor HDL to acceptor LDL driven by recombinant human cholesteryl ester transfer protein
T1 sequence (P11597 whole entry): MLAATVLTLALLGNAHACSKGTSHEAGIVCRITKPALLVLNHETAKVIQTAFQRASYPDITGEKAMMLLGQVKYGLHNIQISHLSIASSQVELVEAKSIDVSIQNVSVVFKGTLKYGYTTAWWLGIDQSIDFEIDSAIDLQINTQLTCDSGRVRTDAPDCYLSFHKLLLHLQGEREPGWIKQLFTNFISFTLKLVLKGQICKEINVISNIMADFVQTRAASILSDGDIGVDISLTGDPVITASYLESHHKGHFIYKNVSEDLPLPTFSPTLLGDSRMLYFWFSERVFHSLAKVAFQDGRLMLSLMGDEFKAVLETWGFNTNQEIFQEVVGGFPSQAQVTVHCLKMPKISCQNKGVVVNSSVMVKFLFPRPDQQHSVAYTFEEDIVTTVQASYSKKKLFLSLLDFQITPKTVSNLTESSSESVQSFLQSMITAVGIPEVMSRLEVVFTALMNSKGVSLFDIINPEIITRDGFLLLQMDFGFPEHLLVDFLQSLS

[2] = molecular target: T1, Cholesteryl ester transfer protein; test: Tested for inhibition of [3H]cholesteryl linoleate(CE) transfer from donor HDL to acceptor LDL driven by recombinant human Cholesteryl ester transfer protein
[3] = molecular target: T1, Cholesteryl ester transfer protein; test: Tested for inhibition of [3H]cholesteryl linoleate(CE) transfer from donor HDL to acceptor LDL driven by recombinant human Cholesteryl ester transfer protein; Inactive
[4] = molecular target: T2, Cholesteryl ester transfer protein (Homo sapiens) (UniProt P11597); test: Tested for inhibition of [3H]cholesteryl linoleate(CE) transfer from donor HDL to acceptor LDL driven by recombinant human Cholesteryl ester transfer protein at 30 micro M
T2 sequence (whole entry): T1 sequence (P11597 whole entry)

[5] = molecular target: T1, Cholesteryl ester transfer protein; test: Tested for inhibition of [3H]cholesteryl linoleate(CE) transfer from donor HDL to acceptor LDL driven by recombinant human cholesteryl ester transfer protein; Inactive
[6] = molecular target: T1, Cholesteryl ester transfer protein; test: Tested for inhibition of [3H]cholesteryl linoleate(CE) transfer from donor HDL to acceptor LDL driven by recombinant human cholesteryl ester transfer protein; inactive
[7] = molecular target: T2, Cholesteryl ester transfer protein (Homo sapiens); test: Tested for inhibition of [3H]cholesteryl linoleate(CE) transfer from donor HDL to acceptor LDL driven by recombinant human cholesteryl ester transfer protein at 30 micro M

Structure (SMILES): CCCCCCCCCCCCCCCCCCP(=O)(O)OCc1ccccc1
- IC50 [1]: 2 µM

Structure (SMILES): CCCCCCCCCCCCCCP(=O)(O)OCc1cccc(Oc2ccccc2)c1
- IC50 [2]: 6 µM

Structure (SMILES): CCCCCCCCCCCCCc1n[nH]c(=S)n1-c1ccccc1
- IC50 [2]: 1.5 µM

Structure (SMILES): CCCCCC[PH](=O)OCc1ccccc1 (stereo not given)
- IC50 [3]: Not Active

Structure (SMILES): CCCCCCCCCCCCCCCCCCP(=O)(O)Oc1cc2ccccc2c2ccccc12
- IC50 [3]: Not Active

Structure (SMILES): CCCCCCCCCCCCCCCP(=O)(O)OCc1ccccc1
- IC50 [2]: 4 µM

Structure (SMILES): CCCCCCCCCCCCCCCCCC[PH](=O)O
- inhibition [4]: 28%

Structure (SMILES): CCCCCCCCCCCCCCCCCCP(=O)(O)OCc1cccnc1
- IC50 [3]: Not Active

Structure (SMILES): CCCCCCCCCCCCCCP(=O)(O)OCc1ccoc1
- IC50 [2]: 15 µM

Structure (SMILES): CCCCCCCCCC[PH](=O)OCc1ccccc1 (stereo not given)
- IC50 [3]: Not Active

Structure (SMILES): CCCCCCCCCCCCCCP(=O)(O)Oc1ccc2ccccc2c1
- IC50 [2]: 24 µM

Structure (SMILES): CCCCCCCCCCCCCCCCCCP(=O)(O)OC1c2ccccc2-c2ccccc21
- IC50 [3]: Not Active

Structure (SMILES): CCCCCCCCCCCCCCCCCCP(=O)(OC)OCc1ccccc1 (stereo not given)
- IC50 [5]: Not Active

Structure (SMILES): CCCCCCCCCCCCCCCCCCP(=O)(O)O[C@H]1CC[C@@]2(C)C(CC[C@H]3[C@@H]4CC[C@H]([C@H](C)CCCC(C)C)[C@@]4(C)CC[C@@H]32)C1 (stereo not given in full)
- inhibition [4]: 30%

Structure (SMILES): CCCCCCCCCCCCCCCCCC[PH](=O)O[C@H]1CC[C@@]2(C)C(CC[C@H]3[C@@H]4CC[C@H]([C@H](C)CCCC(C)C)[C@@]4(C)CC[C@@H]32)C1 (stereo not given in full)
- IC50 [6]: Not Active

Structure (SMILES): CCCCCCCCCCCCCCP(=O)(O)OCc1ccccc1
- IC50 [2]: 5 µM

Structure (SMILES): CCCCCCCCCCCCCCCCCCP(=O)(O)OC
- inhibition [7]: 46%

Structure (SMILES): CCCCCCCCCCCCCCCCCCP(=O)(O)CCc1ccccc1
- IC50 [1]: 14 µM

Structure (SMILES): CCCCCCCCCCCCCCCCCCP(=O)(O)Oc1ccc2c(c1)Cc1ccccc1-2
- IC50 [3]: Not Active

Structure (SMILES): CCCCCCCCCCCCCCCCCC[PH](=O)OCc1ccccc1 (stereo not given)
- IC50 [3]: Not Active
